One assay relates to P. falciparum K1. The experiment in a line: Anti-malarial in vitro efficacy, assay 1, P. falciparum K1. It is filed as cell-based. Particulars: Plasmodium falciparum, strain K1. The protocol: (§1) The ability of aminopyrazine derivatives according to the invention to kill P. falciparum parasites and/or to inhibit its proliferation is tested as follows:
(§2) The protocol used was as described in the supplemental material to Fiddock et al., 2004, Nature Reviews Drug Discovery, (3), p 509.
(§3) EC50s (ng/ml) are reported in Table 3 below against different strains of P. falciparum K1, NF54 (assay 1).

A further assay relates to P. falciparum NF54. Briefly: Anti-malarial in vitro efficacy, assay 1, P. falciparum NF54. It is filed as cell-based. The note with it: Plasmodium falciparum, strain NF54. The protocol:
as §1, §2, §3

The test system of another assay is parasitemia. The experiment in a line: Anti-malarial in vivo efficacy, inhibition of parasitemia after 4 daily oral doses. Particulars: for inhibition in vivo at 3 mg/kg: read-out: percentages of inhibition of parasitemia, 3 mg/kg po; for inhibition in vivo at 10 mg/kg: read-out: percentages of inhibition of parasitemia, 10 mg/kg po. The source says: The ability of aminopyrazine derivatives according to the invention to show antimalarial efficacy in vivo can be tested by using the protocols described in the supplemental material to Fidock et al., 2004, Nature Reviews Drug Discovery, (3), p 509.

Converted amounts (≈) assume the structure as drawn.

What is called EC50 is the concentration needed to bring the measured effect to its halfway point. Low values mean an effect from little substance, high ones a need for much substance.

Turning to `COc1ccc(-c2nc(-c3ccc(S(C)(=O)=O)cc3)cnc2N)cn1` [Compound 1, 3-(6-methoxypyridin-3-yl)-5-(4-(methylsulfonyl)phenyl)pyrazin-2-amine], in the assay with P. falciparum K1, the EC50 turned out to be 17 ng/mL (≈ 0.0477 µM).

With `CS(=O)(=O)c1ccc(-c2cnc(N)c(-c3ccc(C(F)(F)F)cc3)n2)cc1` [Compound 2, 5-(4-(methylsulfonyl)phenyl)-3-(4-(trifluoromethyl)phenyl)pyrazin-2-amine], the response with P. falciparum K1 was half-maximal at 4 ng/mL (≈ 0.0102 µM) (EC50).

In the assay with P. falciparum K1, `CS(=O)(=O)c1ccc(-c2cnc(N)c(-c3ccc(C(F)(F)F)nc3)n2)cc1` [Compound 3, 5-(4-(methylsulfonyl)phenyl)-3-(6-(trifluoromethyl)pyridin-3-yl)pyrazin-2-amine] gave an EC50 of 4.8 ng/mL (≈ 0.0122 µM).

In the assay with P. falciparum NF54, `NC(=O)c1ccc(-c2cnc(N)c(-c3ccc(C(F)(F)F)cc3)n2)cc1` [Compound 4, 4-(5-amino-6-(4-(trifluoromethyl)phenyl)pyrazin-2-yl)benzamide] gave an EC50 of 5.7 ng/mL (≈ 0.0159 µM). In the assay with parasitemia, the inhibition in vivo at 3 mg/kg amounted to 99.9% and the inhibition in vivo at 10 mg/kg was 99.9%. Further, in the assay with P. falciparum K1, the EC50 was found to be 4.9 ng/mL (≈ 0.0137 µM).

In the case of `NC(=O)c1ccc(-c2cnc(N)c(-c3ccc(C(F)(F)F)nc3)n2)cc1` [Compound 5, 4-(5-amino-6-(6-(trifluoromethyl)pyridin-3-yl)pyrazin-2-yl)benzamide], in the assay on P. falciparum NF54, the EC50 is 7.8 ng/mL (≈ 0.0217 µM). For the same compound, in the assay with parasitemia, the inhibition in vivo at 3 mg/kg stood at 99.4% and the inhibition in vivo at 10 mg/kg was determined as 99.9%. Moreover, the EC50 with P. falciparum K1 was 5.8 ng/mL (≈ 0.0161 µM).

Compound `CN1CCN(C(=O)c2ccc(-c3cnc(N)c(-c4ccc(C(F)(F)F)cc4)n3)cc2)CC1` [Compound 6, (4-(5-amino-6-(4-(trifluoromethyl)phenyl)pyrazin-2-yl)phenyl)(4-methylpiperazin-1-yl) methanone] gave a concentration giving a half-maximal response (EC50) with P. falciparum NF54 of 3.5 ng/mL (≈ 0.00793 µM). Further, in the assay with parasitemia, the inhibition in vivo at 3 mg/kg stood at 99.9% and the inhibition in vivo at 10 mg/kg came out at 99.9%. Besides, the EC50 in the assay on P. falciparum K1 was 3 ng/mL (≈ 0.0068 µM).

In the case of `CN1CCN(C(=O)c2ccc(-c3cnc(N)c(-c4ccc(C(F)(F)F)nc4)n3)cc2)CC1` [Compound 7, (4-(5-amino-6-(6-(trifluoromethyl)pyridin-3-yl)pyrazin-2-yl)phenyl)(4-methylpiperazin-1-yl)methanone], the EC50 in the assay with P. falciparum NF54 was determined as 4.4 ng/mL (≈ 0.00994 µM). Further, in the assay on parasitemia, the inhibition in vivo at 3 mg/kg worked out at 81% and the inhibition in vivo at 10 mg/kg stood at 99.8%. This compound returned an EC50 in the assay on P. falciparum K1 of 4.4 ng/mL (≈ 0.00994 µM).

With `Nc1ncc(-c2ccc(C(=O)N3CCNCC3)cc2)nc1-c1ccc(C(F)(F)F)cc1` [Compound 8, (4-(5-amino-6-(4-(trifluoromethyl)phenyl)pyrazin-2-yl)phenyl)(piperazin-1-yl)methanone], the EC50 in the assay with P. falciparum NF54 came out at 2.3 ng/mL (≈ 0.00538 µM); in the assay with P. falciparum K1, 2.1 ng/mL (≈ 0.00491 µM). In addition, the inhibition in vivo at 3 mg/kg in the assay with parasitemia was found to be 99.9%. Also, the inhibition in vivo at 10 mg/kg in the assay with parasitemia amounted to 99.9%.

For the compound `Nc1ncc(-c2ccc(C(=O)N3CCNCC3)cc2)nc1-c1ccc(C(F)(F)F)nc1` [Compound 9, (4-(5-amino-6-(6-(trifluoromethyl)pyridin-3-yl)pyrazin-2-yl)phenyl)(piperazin-1-yl) methanone], the figures for the EC50 with P. falciparum NF54 and in the assay with P. falciparum K1 were 4.6 ng/mL (≈ 0.0107 µM) and 4 ng/mL (≈ 0.00934 µM), respectively.

On to `Nc1ncc(-c2ccc(C(=O)N3CCOCC3)cc2)nc1-c1ccc(C(F)(F)F)nc1` [Compound 10, (4-(5-amino-6-(6-(trifluoromethyl)pyridin-3-yl)pyrazin-2-yl)phenyl) (morpholino) methanone], for which the midpoint of the response with P. falciparum K1, the EC50, lay at 4.1 ng/mL (≈ 0.00955 µM).

`Nc1ncc(-c2ccc(C(=O)N3CCOCC3)cc2)nc1-c1ccc(C(F)(F)F)cc1` [Compound 11, (4-(5-amino-6-(4-(trifluoromethyl)phenyl)pyrazin-2-yl)phenyl)(morpholino)methanone] had an EC50 in the assay with P. falciparum K1 of 3.1 ng/mL (≈ 0.00724 µM).

For the compound `CN1CCCN(C(=O)c2ccc(-c3cnc(N)c(-c4ccc(C(F)(F)F)nc4)n3)cc2)CC1` [Compound 12, (4-(5-amino-6-(6-(trifluoromethyl)pyridin-3-yl)pyrazin-2-yl)phenyl)(4-methyl-1,4-diazepan-1-yl)methanone], the results for the EC50 in the assay with P. falciparum NF54 and in the assay on P. falciparum K1 were 6.9 ng/mL (≈ 0.0151 µM) and 4.5 ng/mL (≈ 0.00986 µM), respectively. Further, the inhibition in vivo at 3 mg/kg in the assay on parasitemia is 99.9%.

As for `NC(=O)c1ccc(-c2cnc(N)c(-c3ccc(C(F)(F)F)c(F)c3)n2)cc1` [Compound 13, 4-(5-amino-6-(3-fluoro-4-(trifluoro-methyl)phenyl)pyrazin-2-yl) benzamide], a half-maximal response in the assay on P. falciparum NF54 (EC50) required 18 ng/mL (≈ 0.0478 µM). In the assay on parasitemia, the inhibition in vivo at 3 mg/kg came out at 99.9% and the inhibition in vivo at 10 mg/kg was found to be 99.9%. The compound further returned an EC50 in the assay on P. falciparum K1 of 18 ng/mL (≈ 0.0478 µM).

Regarding `NC(=O)c1ccc(-c2cnc(N)c(-c3ccc(C(N)=O)cc3)n2)cc1` [Compound 15, 4,4′-(3-aminopyrazine-2,6-diyl) dibenzamide], the EC50 turned out to be 8.5 ng/mL (≈ 0.0255 µM) in the assay with P. falciparum NF54 and 7.1 ng/mL (≈ 0.0213 µM) in the assay on P. falciparum K1.

Take `CC(C)(C)N1CCN(C(=O)c2ccc(-c3cnc(N)c(-c4ccc(C(F)(F)F)cc4)n3)cc2)CC1` [Compound 20, (4-(5-amino-6-(4-(trifluoromethyl)phenyl)pyrazin-2-yl)phenyl)(4-tert-butylpiperazin-1-yl)methanone]: the concentration for a half-maximal effect (EC50) in the assay with P. falciparum NF54 was found to be 8.2 ng/mL (≈ 0.017 µM); in the assay on P. falciparum K1 it was 5.5 ng/mL (≈ 0.0114 µM).

As to `Nc1ncc(-c2ccc(C(=O)N3CCC(O)C3)cc2)nc1-c1ccc(C(F)(F)F)cc1` (centres unmarked) [Compound 21, (4-(5-amino-6-(4-(trifluoromethyl)phenyl)pyrazin-2-yl)phenyl)(3-hydroxypyrrolidin-1-yl)methanone], the EC50 with P. falciparum NF54 stood at 4.1 ng/mL (≈ 0.00957 µM); in the assay with P. falciparum K1 it was 2.9 ng/mL (≈ 0.00677 µM). Moreover, the inhibition in vivo at 3 mg/kg in the assay on parasitemia came out at 99.6%.

Turning to `Nc1ncc(-c2ccc(C(=O)N3CCC(O)CC3)cc2)nc1-c1ccc(C(F)(F)F)nc1` [Compound 22, (4-(5-amino-6-(6-(trifluoromethyl)pyridin-3-yl)pyrazin-2-yl)phenyl)(4-hydroxypiperidin-1-yl)methanone], the EC50 was found to be 4.5 ng/mL (≈ 0.0101 µM) in the assay with P. falciparum NF54 and 4 ng/mL (≈ 0.00902 µM) in the assay with P. falciparum K1.

`Nc1ncc(-c2ccc(C(=O)N3CCC(O)CC3)cc2)nc1-c1ccc(C(F)(F)F)cc1` [Compound 23, (4-(5-amino-6-(4-(trifluoromethyl)phenyl)pyrazin-2-yl)phenyl)(4-hydroxypiperidin-1-yl)methanone]: the values for the EC50 with P. falciparum NF54 and in the assay with P. falciparum K1 were 2.4 ng/mL (≈ 0.00542 µM) and 2.2 ng/mL (≈ 0.00497 µM), respectively. Further, in the assay with parasitemia, the inhibition in vivo at 3 mg/kg came to 98.7%.

In the case of `CC(C)(C)N1CCN(C(=O)c2ccc(-c3cnc(N)c(-c4ccc(C(F)(F)F)nc4)n3)cc2)CC1` [Compound 24, (4-(5-amino-6-(6-(trifluoromethyl)pyridin-3-yl)pyrazin-2-yl)phenyl)(4-(tert-butyl)piperazin-1-yl)methanone], the results for the EC50 in the assay with P. falciparum NF54 and in the assay on P. falciparum K1 were 4.3 ng/mL (≈ 0.00887 µM) and 3.1 ng/mL (≈ 0.0064 µM), respectively. For the same compound, the inhibition in vivo at 3 mg/kg in the assay on parasitemia worked out at 87.6%.

For `Nc1ncc(-c2ccc(C(=O)N3CCCNCC3)cc2)nc1-c1ccc(C(F)(F)F)nc1` [Compound 26, (4-(5-amino-6-(6-(trifluoromethyl)pyridin-3-yl)pyrazin-2-yl)phenyl) (1,4-diazepan-1-yl)methanone], the EC50 in the assay on P. falciparum NF54 turned out to be 5.9 ng/mL (≈ 0.0133 µM); with P. falciparum K1, 4.3 ng/mL (≈ 0.00972 µM).

With `Nc1ncc(-c2ccc(C(=O)N3CCC(N)C3)cc2)nc1-c1ccc(C(F)(F)F)nc1` (centres unmarked) [Compound 28, (4-(5-amino-6-(6-(trifluoromethyl)pyridin-3-yl)pyrazin-2-yl)phenyl)(3-aminopyrrolidin-1-yl)methanone], the EC50 in the assay on P. falciparum NF54 came to 17 ng/mL (≈ 0.0397 µM); in the assay with P. falciparum K1, 10 ng/mL (≈ 0.0233 µM).

Take `Nc1ncc(-c2ccc(C(=O)N3CCC(N)C3)cc2)nc1-c1ccc(C(F)(F)F)cc1` (centres unmarked) [Compound 29, (4-(5-amino-6-(4-(trifluoromethyl)phenyl)pyrazin-2-yl)phenyl)(3-aminopyrrolidin-1-yl)methanone]: the EC50 with P. falciparum NF54 stood at 8.8 ng/mL (≈ 0.0206 µM); with P. falciparum K1 it was 4.8 ng/mL (≈ 0.0112 µM).

Regarding `Nc1ncc(-c2ccc(C(=O)N3CCC(O)C3)cc2)nc1-c1ccc(C(F)(F)F)nc1` (centres unmarked) [Compound 30, (4-(5-amino-6-(6-(trifluoromethyl)pyridin-3-yl)pyrazin-2-yl)phenyl)(3-hydroxypyrrolidin-1-yl)methanone], the EC50 with P. falciparum NF54 was found to be 8.6 ng/mL (≈ 0.02 µM); in the assay with P. falciparum K1, 5.2 ng/mL (≈ 0.0121 µM).

On to `Nc1ncc(-c2ccc(C(=O)N3CCC(N)CC3)cc2)nc1-c1ccc(C(F)(F)F)nc1` [Compound 31, (4-(5-amino-6-(6-(trifluoromethyl)pyridin-3-yl)pyrazin-2-yl)phenyl)(4-aminopiperidinyl)methanone], for which the EC50 was found to be 8.5 ng/mL (≈ 0.0192 µM) in the assay with P. falciparum NF54 and 7.6 ng/mL (≈ 0.0172 µM) with P. falciparum K1.

In the case of `Nc1ncc(-c2ccc(C(=O)N3CCC(N)CC3)cc2)nc1-c1ccc(C(F)(F)F)cc1` [Compound 32, (4-(5-amino-6-(4-(trifluoromethyl)phenyl)pyrazin-2-yl)phenyl)(4-aminopiperidinyl)methanone], the values for the EC50 in the assay with P. falciparum NF54 and in the assay with P. falciparum K1 were 4.3 ng/mL (≈ 0.00974 µM) and 2.9 ng/mL (≈ 0.00657 µM), respectively.

In turn, `Nc1ncc(-c2ccc(S(=O)(=O)C3CC3)cc2)nc1-c1ccc(C(F)(F)F)nc1` [Compound 34, 5-(4-(cyclopropylsulfonyl)phenyl)-3-(6-(trifluoromethyl)pyridin-3-yl) pyrazin-2-amine] registered an EC50 in the assay on P. falciparum K1 of 4 ng/mL (≈ 0.00951 µM).

On to `Nc1ncc(-c2ccc(C(=O)N3CC[C@@H](O)C3)cc2)nc1-c1ccc(C(F)(F)F)cc1` [Compound 35, (R)-(4-(5-amino-6-(4-(trifluoro-methyl)phenyl)pyrazin-2-yl)phenyl)(3-hydroxypyrrolidin-1-yl) methanone], for which the midpoint of the response with P. falciparum NF54, the EC50, lay at 3.2 ng/mL (≈ 0.00747 µM). For the same compound, in the assay on parasitemia, the inhibition in vivo at 3 mg/kg came to 99.9% and the inhibition in vivo at 10 mg/kg amounted to 99.9%.

Compound `Nc1ncc(-c2ccc(C(=O)N3CC[C@H](O)C3)cc2)nc1-c1ccc(C(F)(F)F)cc1` [Compound 36, (S)-(4-(5-amino-6-(4-(trifluoro-methyl)phenyl)pyrazin-2-yl)phenyl)(3-hydroxypyrrolidin-1-yl)methanone] came in with a half-maximal effective concentration (EC50) in the assay on P. falciparum NF54 of 2.6 ng/mL (≈ 0.00607 µM). Besides, in the assay with parasitemia, the inhibition in vivo at 3 mg/kg was determined as 99.9% and the inhibition in vivo at 10 mg/kg was determined as 99.9%.

(Values after patent US9266842B2, “Anti-malarial agents” (UNIVERSITY OF CAPE TOWN, priority 2012, dated 2016).)
